US12180187B2, “1-phenyl-5-azinylpyrazolyl-3-oxyalkyl acids and their use for controlling unwanted plant growth” (BAYER AKTIENGESELLSCHAFT, priority 2019, dated 2024)

Legend:
[1] = test system: PHBPU; assay: Pre-emergence action at 320 g/ha against PHBPU; format: in vivo; details: visual scoring after about 3 weeks vs untreated controls
Source text: b) Seeds of monocotyledonous and dicotyledonous weed plants and crop plants are placed in plastic or organic planting pots and covered with soil. The compounds of the invention, formulated in the form of wettable powders (WP) or as emulsion concentrates (EC), are then applied onto the surface of the covering soil as aqueous suspension or emulsion with addition of 0.5% additive at a water application rate of 600 l/ha (converted). After the treatment, the pots are placed in a greenhouse and kept under good growth conditions for the trial plants. After about 3 weeks, the effect of the preparations is scored visually in comparison with untreated controls as percentages. For example, 100% activity=the plants have died, 0% activity=like control plants. Tables 13 to 26 below show the effects of selected compounds of the general formula (I) on various harmful plants and at an application rate corresponding to 320 g/ha, which were obtained by the experimental procedure mentioned above.

[2] = test system: MATIN; assay: Pre-emergence action at 320 g/ha against MATIN; format: in vivo, Tripleurospermum inodorum (Matricaria inodora); details: visual scoring after about 3 weeks vs untreated controls
Procedure, shortened: (§1)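 Application: aqueous WP or EC with 0.5% additive on soil covering seeds, 600 l/ha. Read-out: visual percent damage after ~3 weeks in greenhouse, untreated pots as reference.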

[3] = test system: ECHGC; assay: Pre-emergence action at 320 g/ha against ECHGC; format: in vivo, Echinochloa crus-galli; details: visual scoring after about 3 weeks vs untreated controls
Procedure, shortened: as §1

[4] = test system: VERPE; assay: Pre-emergence action at 320 g/ha against VERPE; format: in vivo, Veronica persica; details: visual scoring after about 3 weeks vs untreated controls
Procedure, shortened: as §1

[5] = test system: ALOMY; assay: Pre-emergence action at 320 g/ha against ALOMY; format: in vivo, Alopecurus myosuroides; details: scored visually after about 3 weeks vs untreated controls (100% = plants have died)
Procedure, shortened: as §1

[6] = test system: AMARE; assay: Pre-emergence action at 320 g/ha against AMARE; format: in vivo, Amaranthus retroflexus; details: visual scoring after about 3 weeks vs untreated controls
Procedure, shortened: as §1

[7] = test system: AVEFA; assay: Pre-emergence action at 320 g/ha against AVEFA; format: in vivo; details: visual scoring after about 3 weeks vs untreated controls
Procedure, shortened: as §1

[8] = test system: SETVI; assay: Pre-emergence action at 320 g/ha against SETVI; format: in vivo, Setaria viridis; details: visual scoring after about 3 weeks vs untreated controls
Procedure, shortened: as §1

[9] = test system: LOLRI; assay: Pre-emergence action at 320 g/ha against LOLRI; format: in vivo, Lolium rigidum; details: visual scoring after about 3 weeks vs untreated controls
Procedure, shortened: as §1

[10] = test system: POLCO; assay: Pre-emergence action at 320 g/ha against POLCO; format: in vivo, Fallopia convolvulus (Polygonum convolvulus); details: visual scoring after about 3 weeks vs untreated controls
Procedure, shortened: as §1

[11] = test system: VIOTR; assay: Pre-emergence action at 320 g/ha against VIOTR; format: in vivo, Viola tricolor; details: dosage 320 g/ha
Procedure, shortened: as §1

[12] = test system: DIGSA; assay: Pre-emergence action at 320 g/ha against DIGSA; format: in vivo, Digitaria sanguinalis; details: visual scoring after about 3 weeks vs untreated controls
Procedure, shortened: as §1

| Structure (SMILES) | Pre-emergence action against PHBPU in % [1] [%] | Pre-emergence action against MATIN in % [2] [%] | Pre-emergence action against ECHGC in % [3] [%] | Pre-emergence action against VERPE in % [4] [%] | Pre-emergence action at 320 g/ha against ALOMY in % [5] [%] | Pre-emergence action against AMARE in % [6] [%] | Pre-emergence action against AVEFA in % [7] [%] | Pre-emergence action against SETVI in % [8] [%] | Pre-emergence action against LOLRI in % [9] [%] | Pre-emergence action against POLCO in % [10] [%] | Pre-emergence action against VIOTR in % [11] [%] | Pre-emergence action against DIGSA in % [12] [%] |
| --- | --- | --- | --- | --- | --- | --- | --- | --- | --- | --- | --- | --- |
| CCOC(=O)CN(C)S(=O)(=O)NC(=O)COc1nn(-c2ccccc2F)c(-c2cncc(F)c2)c1Br [Example X-041] | 90 | 90 | 80 | 100 | 100 | 90 | 80 | 90 | 90 | 90 | 100 | – |
| O=C(O)COc1nn(-c2ccccc2F)c(-c2ccc(F)nc2)c1F [VII-115] | 90 | – | – | 90 | 100 | 100 | 90 | 100 | 90 | 80 | 100 | 100 |
| C[C@@H](Oc1nn(-c2ccccc2F)c(-c2cncc(F)c2)c1Br)C(=O)O [VII-128] | 90 | 90 | 90 | 100 | 100 | 100 | 80 | 100 | 100 | 90 | 100 | 100 |
